According to the NIST ThermoML archive (doi:10.1016/j.jct.2008.09.002):
± gives the expanded uncertainty stated by the source.

How the values were obtained:
[1] = xn = mol fraction of the nth substance listed; conditions: 101.3 kPa, Liquid, Vibrating tube method
[2] = molar heat capacity at constant pressure; xn = mol fraction of the nth substance listed; conditions: 101.3 kPa, Liquid, Small sample (50 mg) DSC
[3] = excess molar enthalpy (molar enthalpy of mixing); xn = mol fraction of the nth substance listed; conditions: 303.15 K, 101.3 kPa, Liquid, Calvet calorimetry

C[N+](=O)[O-] [nitromethane] + CCOS(=O)(=O)[O-].CCn1cc[n+](C)c1
Conditions	mass density, [1] [kg/m3]	molar heat capacity at constant pressure, [2] [J/K/mol]
293.15 K, x2 = 0.0513	1162.5 ± 0.7	120.8 ± 1.9
293.15 K, x2 = 0.0991	1176.4 ± 0.8	134.3 ± 2.1
293.15 K, x2 = 0.2013	1196.4 ± 0.8	164 ± 2.5
293.15 K, x2 = 0.3095	1209.6 ± 0.9	195.4 ± 3
293.15 K, x2 = 0.4073	1217.8 ± 1	223.5 ± 3.5
293.15 K, x2 = 0.5056	1223.9 ± 1	–
293.15 K, x2 = 0.5489	1226.3 ± 1.1	264 ± 4.1
293.15 K, x2 = 0.5944	1228.3 ± 1.1	–
293.15 K, x2 = 0.689	1232.1 ± 1.2	304 ± 4.7
293.15 K, x2 = 0.7805	1235.1 ± 1.2	329.9 ± 5.1
293.15 K, x2 = 0.8817	1237.9 ± 1.3	358.6 ± 5.6
293.15 K, x2 = 0.9398	1239.3 ± 1.3	–
293.15 K, x2 = 0.9522	1239.6 ± 1.3	–
298.15 K, x2 = 0.0513	1156.4 ± 0.7	121.1 ± 1.9
298.15 K, x2 = 0.0991	1170.9 ± 0.8	134.7 ± 2.1
298.15 K, x2 = 0.2013	1191.5 ± 0.8	164.6 ± 2.6
298.15 K, x2 = 0.3095	1205.1 ± 0.9	196.1 ± 3
298.15 K, x2 = 0.4073	1213.6 ± 1	224.4 ± 3.5
298.15 K, x2 = 0.5056	1220 ± 1	–
298.15 K, x2 = 0.5489	1222.4 ± 1.1	265.2 ± 4.1
298.15 K, x2 = 0.5944	1224.5 ± 1.1	–
298.15 K, x2 = 0.689	1228.4 ± 1.2	305.5 ± 4.7
298.15 K, x2 = 0.7805	1231.5 ± 1.2	331.6 ± 5.1
298.15 K, x2 = 0.8817	1234.4 ± 1.3	360.5 ± 5.6
298.15 K, x2 = 0.9398	1235.8 ± 1.3	–
298.15 K, x2 = 0.9522	1236.2 ± 1.3	–
303.15 K, x2 = 0.0513	1150.4 ± 0.7	121.6 ± 1.9
303.15 K, x2 = 0.0991	1165.3 ± 0.8	135.3 ± 2.1
303.15 K, x2 = 0.2013	1186.6 ± 0.8	165.3 ± 2.6
303.15 K, x2 = 0.3095	1200.7 ± 0.9	196.9 ± 3.1
303.15 K, x2 = 0.4073	1209.5 ± 1	225.5 ± 3.5
303.15 K, x2 = 0.5056	1216 ± 1	–
303.15 K, x2 = 0.5489	1218.5 ± 1.1	266.6 ± 4.1
303.15 K, x2 = 0.5944	1220.7 ± 1.1	–
303.15 K, x2 = 0.689	1224.7 ± 1.1	307.2 ± 4.8
303.15 K, x2 = 0.7805	1228 ± 1.2	333.5 ± 5.2
303.15 K, x2 = 0.8817	1230.9 ± 1.3	362.6 ± 5.6
303.15 K, x2 = 0.9398	1232.4 ± 1.3	–
303.15 K, x2 = 0.9522	1232.7 ± 1.3	–
308.15 K, x2 = 0.0513	1144.3 ± 0.7	122.1 ± 1.9
308.15 K, x2 = 0.0991	1159.7 ± 0.7	135.9 ± 2.1
308.15 K, x2 = 0.2013	1181.7 ± 0.8	166 ± 2.6
308.15 K, x2 = 0.3095	1196.2 ± 0.9	197.8 ± 3.1
308.15 K, x2 = 0.4073	1205.3 ± 1	226.7 ± 3.5
308.15 K, x2 = 0.5056	1212.1 ± 1	–
308.15 K, x2 = 0.5489	1214.6 ± 1	268.1 ± 4.2
308.15 K, x2 = 0.5944	1216.9 ± 1.1	–
308.15 K, x2 = 0.689	1221 ± 1.1	308.9 ± 4.8
308.15 K, x2 = 0.7805	1224.4 ± 1.2	335.5 ± 5.2
308.15 K, x2 = 0.8817	1227.5 ± 1.3	364.8 ± 5.7
308.15 K, x2 = 0.9398	1229 ± 1.3	–
308.15 K, x2 = 0.9522	1229.3 ± 1.3	–
313.15 K, x2 = 0.0513	1138.2 ± 0.7	122.7 ± 1.9
313.15 K, x2 = 0.0991	1154.2 ± 0.7	136.6 ± 2.1
313.15 K, x2 = 0.2013	1176.9 ± 0.8	166.8 ± 2.6
313.15 K, x2 = 0.3095	1191.8 ± 0.9	198.7 ± 3.1
313.15 K, x2 = 0.4073	1201.2 ± 1	227.9 ± 3.5
313.15 K, x2 = 0.5056	1208.2 ± 1	–
313.15 K, x2 = 0.5489	1210.8 ± 1	269.7 ± 4.2
313.15 K, x2 = 0.5944	1213.1 ± 1.1	–
313.15 K, x2 = 0.689	1217.4 ± 1.1	310.9 ± 4.8
313.15 K, x2 = 0.7805	1220.9 ± 1.2	337.7 ± 5.2
313.15 K, x2 = 0.8817	1224 ± 1.3	367.1 ± 5.7
313.15 K, x2 = 0.9398	1225.6 ± 1.3	–
313.15 K, x2 = 0.9522	1225.9 ± 1.3	–
318.15 K, x2 = 0.0513	1132.2 ± 0.7	123.2 ± 1.9
318.15 K, x2 = 0.0991	1148.6 ± 0.7	137.2 ± 2.1
318.15 K, x2 = 0.2013	1172 ± 0.8	167.6 ± 2.6
318.15 K, x2 = 0.3095	1187.4 ± 0.9	199.7 ± 3.1
318.15 K, x2 = 0.4073	1197.1 ± 0.9	229.2 ± 3.6
318.15 K, x2 = 0.5056	1204.2 ± 1	–
318.15 K, x2 = 0.5489	1207 ± 1	271.4 ± 4.2
318.15 K, x2 = 0.5944	1209.3 ± 1.1	–
318.15 K, x2 = 0.689	1213.8 ± 1.1	312.9 ± 4.8
318.15 K, x2 = 0.7805	1217.3 ± 1.2	340 ± 5.3
318.15 K, x2 = 0.8817	1220.6 ± 1.2	369.6 ± 5.7
318.15 K, x2 = 0.9398	1222.2 ± 1.3	–
318.15 K, x2 = 0.9522	1222.5 ± 1.3	–

[3]
Conditions	excess molar enthalpy [kcal/mol]
x2 = 0.1001	-0.0688 ± 0.0055
x2 = 0.1977	-0.116 ± 0.00932
x2 = 0.3075	-0.142 ± 0.0115
x2 = 0.4001	-0.154 ± 0.0124
x2 = 0.5071	-0.148 ± 0.012
x2 = 0.6026	-0.131 ± 0.0105
x2 = 0.6953	-0.108 ± 0.0086
x2 = 0.8026	-0.0736 ± 0.00598
x2 = 0.8668	-0.05 ± 0.00406

C[N+](=O)[O-] [nitromethane] + CCn1cc[n+](C)c1.O=S(=O)([O-])C(F)(F)F
Conditions	mass density, [1] [kg/m3]	molar heat capacity at constant pressure, [2] [J/K/mol]
293.15 K, x2 = 0.0525	1186.8 ± 0.8	119.2 ± 1.8
293.15 K, x2 = 0.0981	1217.2 ± 0.8	130.6 ± 2
293.15 K, x2 = 0.2013	1266.6 ± 1	157 ± 2.4
293.15 K, x2 = 0.3063	1300.5 ± 1.1	183.7 ± 2.8
293.15 K, x2 = 0.4027	1323.1 ± 1.2	208.2 ± 3.2
293.15 K, x2 = 0.4995	1340.5 ± 1.3	233.2 ± 3.6
293.15 K, x2 = 0.5934	1353.9 ± 1.4	257.3 ± 4
293.15 K, x2 = 0.6847	1364.4 ± 1.4	280.5 ± 4.3
293.15 K, x2 = 0.7698	1372.6 ± 1.5	301.6 ± 4.7
293.15 K, x2 = 0.8671	1380.5 ± 1.6	326.9 ± 5.1
298.15 K, x2 = 0.0525	1180.5 ± 0.8	119.5 ± 1.9
298.15 K, x2 = 0.0981	1211.2 ± 0.8	130.9 ± 2
298.15 K, x2 = 0.2013	1261.1 ± 1	157.6 ± 2.4
298.15 K, x2 = 0.3063	1295.4 ± 1.1	184.4 ± 2.9
298.15 K, x2 = 0.4027	1318.2 ± 1.2	209.1 ± 3.2
298.15 K, x2 = 0.4995	1335.7 ± 1.3	234.3 ± 3.6
298.15 K, x2 = 0.5934	1349.2 ± 1.3	258.5 ± 4
298.15 K, x2 = 0.6847	1359.9 ± 1.4	281.9 ± 4.4
298.15 K, x2 = 0.7698	1368.2 ± 1.5	303.3 ± 4.7
298.15 K, x2 = 0.8671	1376.2 ± 1.6	328.8 ± 5.1
303.15 K, x2 = 0.0525	1174.3 ± 0.8	120 ± 1.9
303.15 K, x2 = 0.0981	1205.3 ± 0.8	131.4 ± 2
303.15 K, x2 = 0.2013	1255.7 ± 0.9	158.3 ± 2.5
303.15 K, x2 = 0.3063	1290.3 ± 1.1	185.2 ± 2.9
303.15 K, x2 = 0.4027	1313.3 ± 1.2	210.1 ± 3.3
303.15 K, x2 = 0.4995	1331 ± 1.3	235.5 ± 3.6
303.15 K, x2 = 0.5934	1344.7 ± 1.3	259.9 ± 4
303.15 K, x2 = 0.6847	1355.4 ± 1.4	283.3 ± 4.4
303.15 K, x2 = 0.7698	1363.8 ± 1.5	305 ± 4.7
303.15 K, x2 = 0.8671	1371.9 ± 1.6	330.7 ± 5.1
308.15 K, x2 = 0.0525	1168 ± 0.7	120.4 ± 1.9
308.15 K, x2 = 0.0981	1199.3 ± 0.8	131.8 ± 2
308.15 K, x2 = 0.2013	1250.2 ± 0.9	159.1 ± 2.5
308.15 K, x2 = 0.3063	1285.2 ± 1	186.1 ± 2.9
308.15 K, x2 = 0.4027	1308.4 ± 1.1	211.1 ± 3.3
308.15 K, x2 = 0.4995	1326.3 ± 1.2	236.7 ± 3.7
308.15 K, x2 = 0.5934	1340.1 ± 1.3	261.3 ± 4
308.15 K, x2 = 0.6847	1351 ± 1.4	284.8 ± 4.4
308.15 K, x2 = 0.7698	1359.4 ± 1.5	306.7 ± 4.8
308.15 K, x2 = 0.8671	1367.6 ± 1.6	332.7 ± 5.2
313.15 K, x2 = 0.0525	1161.7 ± 0.7	121 ± 1.9
313.15 K, x2 = 0.0981	1193.4 ± 0.8	132.4 ± 2.1
313.15 K, x2 = 0.2013	1244.8 ± 0.9	160 ± 2.5
313.15 K, x2 = 0.3063	1280.1 ± 1	187 ± 2.9
313.15 K, x2 = 0.4027	1303.6 ± 1.1	212.1 ± 3.3
313.15 K, x2 = 0.4995	1321.6 ± 1.2	238 ± 3.7
313.15 K, x2 = 0.5934	1335.5 ± 1.3	262.7 ± 4.1
313.15 K, x2 = 0.6847	1346.5 ± 1.4	286.3 ± 4.4
313.15 K, x2 = 0.7698	1355.1 ± 1.5	308.5 ± 4.8
313.15 K, x2 = 0.8671	1363.4 ± 1.6	334.7 ± 5.2
318.15 K, x2 = 0.0525	1155.4 ± 0.7	121.4 ± 1.9
318.15 K, x2 = 0.0981	1187.4 ± 0.8	132.8 ± 2.1
318.15 K, x2 = 0.2013	1239.3 ± 0.9	160.8 ± 2.5
318.15 K, x2 = 0.3063	1275 ± 1	188 ± 2.9
318.15 K, x2 = 0.4027	1298.7 ± 1.1	213 ± 3.3
318.15 K, x2 = 0.4995	1316.9 ± 1.2	239.2 ± 3.7
318.15 K, x2 = 0.5934	1331 ± 1.3	264.2 ± 4.1
318.15 K, x2 = 0.6847	1342.1 ± 1.4	287.8 ± 4.5
318.15 K, x2 = 0.7698	1350.7 ± 1.5	310.3 ± 4.8
318.15 K, x2 = 0.8671	1359.1 ± 1.6	336.7 ± 5.2

[3]
Conditions	excess molar enthalpy [kcal/mol]
x2 = 0.1234	-0.0301 ± 0.00239
x2 = 0.2533	-0.0457 ± 0.00359
x2 = 0.3774	-0.0468 ± 0.00382
x2 = 0.5026	-0.048 ± 0.00382
x2 = 0.6253	-0.0399 ± 0.00335
x2 = 0.7438	-0.0299 ± 0.00239
x2 = 0.8668	-0.0139 ± 0.0012
